Measured values reported in patent US20130071357A1, “IDENTIFICATION, PROLIFERATION IN SITU, HARVESTING, SEPARATION, AND TRANSPLANTATION OF ADULT-DERIVED REGENERATIVE PLURIPOTENT TRANSITIONAL BLASTOMERE-LIKE STEM CELLS AND METHODS OF TREATMENT THEREOF” (HEYGEN, LLC, priority 2011, published 2013).
In brackets after ≈: the same amount, converted by molar mass.

Tests used:
[1] = tested on: adult-derived regenerative pluripotent transitional blastomere-like stem cells; assay: differentiation of Tr-BLSCs after exposure to dexamethasone; format: cell-based; settings: extended exposure to a range of dexamethasone concentrations
Text: After extended exposure to a range of dexamethasone concentrations, adult-derived regenerative pluripotent transitional blastomere-like stem cells differentiated into more than 50 discrete cell types.

[2] = solubility of dexamethasone; format: physicochemical
Method: Dexamethasone solution, pH 7.4: This is typically made up in absolute ethanol (EtOH) because it is not soluble in water or media. Weigh out 0.039 gm of Dexamethasone (Dex, catalog #D-1756, Sigma) and add to 10 ml of absolute EtOH. This will make a 1×10^−2 M stock solution. Store this solution at −20° C. This is the most concentrated solution of Dex that can be made with complete solubility. Add 1 ml of the stock Dex solution made above to 9-ml Opti-MEM I medium with Glutamax. Aliquot 9 ml of this solution as 500 μl quantities in 2 ml cryovials and store at −20° C. Label these tubes as […]. Take the remaining 1 ml of 10^−6M Dex and add to 9 ml of Opti-MEM I medium with Glutamax. Aliquot 9 mls and reserve 1 ml as before. Label these tubes as 1×10^−7M Dex. Take the remaining 1 ml of 10^−7M Dex and add to 9 ml of Opti-MEM I medium with Glutamax. Aliquot 9 mls and reserve 1 ml as before. Label these tubes as 1×10^−8M Dex. Take the remaining 1 ml of 10^−8M Dex and add to 9 ml of Opti-MEM I medium with Glutamax. Aliquot 9 mls and reserve 1 ml as before. Label these tubes as 1×10^−9M Dex. Take the remaining 1 ml of 10^−9M Dex and add to 9 ml of Opti-MEM I medium with Glutamax. Aliquot all 10 mls. Label these tubes as 1×10^−10M Dex. These aliquots will bring 500 mls of media to the concentration of Dex labeled on the tube. Store the cryovials at −20° C.

[3] = tested on: adult pluripotent epiblast-like stem cells; assay: induction of epiblast-like stem cells in culture; format: cell-based, rat; settings: for response to progression agents: lineage-uncommitted ELSCs
[4] = tested on: adult totipotent blastomeric-like stem cells; assay: induction of blastomeric-like stem cells in culture; format: cell-based, rat; settings: for response to progression agents: lineage-uncommitted BLSCs
Text: 1961; Rohme 1981; Young and Black, 2005a].
FIG. 7. Blastomeric-like stem cells (BLSCs) harvested from male Sprague-Dawley out bred rat 0001 and propagated from a single cell derived by serial dilution clonogenic analysis, then genomically labeled with LacZ to synthesize the beta-galactosidase gene product. Clone designated as Scl-44beta. […] B-L is phase contrast microscopy to show unstained cells in field of view. […] Original magnification 200×.
FIG. 8. Blastomeric-like stem cells (BLSCs) harvested from male Sprague-Dawley out bred rat 0001 and propagated from a single cell derived by serial dilution clonogenic analysis, then genomically labeled with LacZ to synthesize the beta-galactosidase gene product. Clone designated as Scl-44beta.

| Molecule | response to progression agents [3] | response to progression agents [4] | further results |
| --- | --- | --- | --- |
| C[C@@H]1C[C@H]2[C@@H]3CCC4=CC(=O)C=C[C@]4(C)[C@@]3(F)[C@@H](O)C[C@]2(C)[C@@]1(O)C(=O)CO [dexamethasone, Dexamethasone] | – | – | discrete cell types formed [1]: more than 50 discrete cell types; solubility in water or media [2]: not soluble; solubility ([2]; absolute ethanol, organic solvent or mixture, thermodynamic from solid, absolute EtOH, read-out: most concentrated solution with complete solubility): 10 mM (≈ 3920 µg/mL) |
| IGF-I: progression agent | unresponsive | unresponsive | – |
| IGF-II: progression agent | unresponsive | unresponsive | – |
| hepatocyte growth factor: lineage-induction agent | – | – | response to lineage-induction agent ([3]; ELSCs): forming cells belonging to the endodermal lineage; response to lineage-induction agent ([4]; BLSCs): forming cells belonging to the endodermal lineage |
| insulin: progression agent | unresponsive | unresponsive | induction in the presence of insulin ([4]; clone Scl-44beta, insulin at 2 micrograms per ml, absence of inhibitors): no induction occurs |
